Assay results as given in PubChem BioAssay AID1845211 (Molecular Pharmacology Branch, DTP, NCI, 2023).
pIC50: −log10 of the molar value.

Tested on: NCI-H322M multicellular tumor spheroids, viability (% test/control)
Assay: Anticancer human tumor NCI-H322M cell line growth inhibition;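 on viability, T/C: spheroids exposed to compound for seven days before readout; 100% = DMSO vehicle control wells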
Conditions: for pIC50: curve of first compound; for viability, T/C: stronger effect = lower value
In short: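 Complex tumor spheroids combined malignant cells with endothelial cells and mesenchymal stem cells. DNA-damaging drugs and DNA repair inhibitors were tested alone and in combination, at half-log dilutions down from clinical Cmax (top 10 microM if Cmax unknown), 0.25% DMSO final.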

[1] = second compound 30 pM, first compound 0.0316 µM
[2] = second compound 30 pM, first compound 0.1 µM
[3] = second compound 30 pM, first compound 0.316 µM
[4] = second compound 30 pM, first compound 1 µM
[5] = second compound 30 pM, first compound 3.16 µM
[6] = second compound 30 pM, first compound 10 µM
[7] = second compound 94.9 pM, first compound 0.0316 µM
[8] = second compound 94.9 pM, first compound 0.1 µM
[9] = second compound 94.9 pM, first compound 0.316 µM
[10] = second compound 94.9 pM, first compound 1 µM
[11] = second compound 94.9 pM, first compound 3.16 µM
[12] = second compound 94.9 pM, first compound 10 µM
[13] = second compound 0.0003 µM, first compound 0.0316 µM
[14] = second compound 0.0003 µM, first compound 0.1 µM
[15] = second compound 0.0003 µM, first compound 0.316 µM
[16] = second compound 0.0003 µM, first compound 1 µM
[17] = second compound 0.0003 µM, first compound 3.16 µM
[18] = second compound 0.0003 µM, first compound 10 µM
[19] = second compound 0.000949 µM, first compound 0.0316 µM
[20] = second compound 0.000949 µM, first compound 0.1 µM
[21] = second compound 0.000949 µM, first compound 0.316 µM
[22] = second compound 0.000949 µM, first compound 1 µM
[23] = second compound 0.000949 µM, first compound 3.16 µM
[24] = second compound 0.000949 µM, first compound 10 µM
[25] = second compound 0.003 µM, first compound 0.0316 µM
[26] = second compound 0.003 µM, first compound 0.1 µM
[27] = second compound 0.003 µM, first compound 0.316 µM
[28] = second compound 0.003 µM, first compound 1 µM
[29] = second compound 0.003 µM, first compound 3.16 µM
[30] = second compound 0.003 µM, first compound 10 µM

Structure (SMILES): [2H]c1nc(C)nc([2H])c1-c1cc(NC[C@@H](C)c2cccc3c(C(=O)NC)ccnc23)ncn1 + COc1cc2c(cc1O)CCNC21CSC2c3c(OC(C)=O)c(C)c4c(c3C(COC1=O)N1C(O)C3Cc5cc(C)c(OC)c(O)c5C(C21)N3C)OCO4
- pIC50 (second compound 30 pM): < 5.00
- pIC50 (second compound 94.9 pM): < 5.00
- pIC50 (second compound 0.0003 µM): < 5.00
- pIC50 (second compound 0.000949 µM): < 5.00
- pIC50 (second compound 0.003 µM): > 7.50
- viability, T/C [1]: 80.4%
- viability, T/C [2]: 89.1%
- viability, T/C [3]: 85.6%
- viability, T/C [4]: 84.7%
- viability, T/C [5]: 75.2%
- viability, T/C [6]: 90.2%
- viability, T/C [7]: 81.3%
- viability, T/C [8]: 76.7%
- viability, T/C [9]: 92.1%
- viability, T/C [10]: 90.1%
- viability, T/C [11]: 85.7%
- viability, T/C [12]: 94.9%
- viability, T/C [13]: 89%
- viability, T/C [14]: 78.9%
- viability, T/C [15]: 90.5%
- viability, T/C [16]: 84.2%
- viability, T/C [17]: 94.9%
- viability, T/C [18]: 93.3%
- viability, T/C [19]: 81%
- viability, T/C [20]: 79.3%
- viability, T/C [21]: 84%
- viability, T/C [22]: 82%
- viability, T/C [23]: 76%
- viability, T/C [24]: 75.8%
- viability, T/C [25]: 15.8%
- viability, T/C [26]: 12.2%
- viability, T/C [27]: 10.5%
- viability, T/C [28]: 10.9%
- viability, T/C [29]: 8.62%
- viability, T/C [30]: 5.55%

Structure (SMILES): CNCc1ccc(-c2cc(-c3nc(-c4ccc(S(=O)(=O)C(C)C)cc4)cnc3N)on2)cc1 + CC[C@@]1(O)C(=O)OCc2c1cc1n(c2=O)Cc2cc3c(CN(C)C)c(O)ccc3nc2-1
- pIC50 (second compound 0.003 µM): < 5.52
- pIC50 (second compound 0.00949 µM): < 5.52
- pIC50 (second compound 0.03 µM): < 5.52
- pIC50 (second compound 0.0949 µM): < 5.52
- pIC50 (second compound 0.3 µM): 5.83
- viability, T/C (second compound 0.003 µM, first compound 0.00949 µM): 79.2%
- viability, T/C (second compound 0.003 µM, first compound 0.03 µM): 93.3%
- viability, T/C (second compound 0.003 µM, first compound 0.0949 µM): 96%
- viability, T/C (second compound 0.003 µM, first compound 0.3 µM): 79.7%
- viability, T/C (second compound 0.003 µM, first compound 0.949 µM): 78%
- viability, T/C (second compound 0.003 µM, first compound 3 µM): 85.6%
- viability, T/C (second compound 0.00949 µM, first compound 0.00949 µM): 95.3%
- viability, T/C (second compound 0.00949 µM, first compound 0.03 µM): 87.9%
- viability, T/C (second compound 0.00949 µM, first compound 0.0949 µM): 83.7%
- viability, T/C (second compound 0.00949 µM, first compound 0.3 µM): 75.4%
- viability, T/C (second compound 0.00949 µM, first compound 0.949 µM): 81.3%
- viability, T/C (second compound 0.00949 µM, first compound 3 µM): 85.7%
- viability, T/C (second compound 0.03 µM, first compound 0.00949 µM): 88.4%
- viability, T/C (second compound 0.03 µM, first compound 0.03 µM): 74.7%
- viability, T/C (second compound 0.03 µM, first compound 0.0949 µM): 85.5%
- viability, T/C (second compound 0.03 µM, first compound 0.3 µM): 69.1%
- viability, T/C (second compound 0.03 µM, first compound 0.949 µM): 86%
- viability, T/C (second compound 0.03 µM, first compound 3 µM): 86.6%
- viability, T/C (second compound 0.0949 µM, first compound 0.00949 µM): 69.3%
- viability, T/C (second compound 0.0949 µM, first compound 0.03 µM): 66%
- viability, T/C (second compound 0.0949 µM, first compound 0.0949 µM): 61.3%
- viability, T/C (second compound 0.0949 µM, first compound 0.3 µM): 74.2%
- viability, T/C (second compound 0.0949 µM, first compound 0.949 µM): 59.7%
- viability, T/C (second compound 0.0949 µM, first compound 3 µM): 69.1%
- viability, T/C (second compound 0.3 µM, first compound 0.00949 µM): 55.2%
- viability, T/C (second compound 0.3 µM, first compound 0.03 µM): 56.4%
- viability, T/C (second compound 0.3 µM, first compound 0.0949 µM): 59.1%
- viability, T/C (second compound 0.3 µM, first compound 0.3 µM): 54.7%
- viability, T/C (second compound 0.3 µM, first compound 0.949 µM): 51.7%
- viability, T/C (second compound 0.3 µM, first compound 3 µM): 46.2%

Structure (SMILES): Cc1cc(C)c(CNC(=O)c2cc(-c3ccc(CN4CCOCC4)cc3)cc3c2cnn3C2CCCC2)c(=O)[nH]1 + COc1cc2c(cc1O)CCNC21CSC2c3c(OC(C)=O)c(C)c4c(c3C(COC1=O)N1C(O)C3Cc5cc(C)c(OC)c(O)c5C(C21)N3C)OCO4
- pIC50 (second compound 30 pM): < 5.00
- pIC50 (second compound 94.9 pM): < 5.00
- pIC50 (second compound 0.0003 µM): < 5.00
- pIC50 (second compound 0.000949 µM): < 5.00
- pIC50 (second compound 0.003 µM): > 7.50
- viability, T/C [1]: 84.6%
- viability, T/C [2]: 97.8%
- viability, T/C [3]: 87.1%
- viability, T/C [4]: 97.9%
- viability, T/C [5]: 99.6%
- viability, T/C [6]: 114%
- viability, T/C [7]: 92.8%
- viability, T/C [8]: 90.9%
- viability, T/C [9]: 92%
- viability, T/C [10]: 84.4%
- viability, T/C [11]: 89.5%
- viability, T/C [12]: 130%
- viability, T/C [13]: 96.6%
- viability, T/C [14]: 98.1%
- viability, T/C [15]: 98.2%
- viability, T/C [16]: 95.3%
- viability, T/C [17]: 108%
- viability, T/C [18]: 126%
- viability, T/C [19]: 92.4%
- viability, T/C [20]: 92.2%
- viability, T/C [21]: 87.9%
- viability, T/C [22]: 96.2%
- viability, T/C [23]: 82%
- viability, T/C [24]: 97.8%
- viability, T/C [25]: 17.8%
- viability, T/C [26]: 8.17%
- viability, T/C [27]: 12.3%
- viability, T/C [28]: 6.05%
- viability, T/C [29]: 2.7%
- viability, T/C [30]: 3.51%
